Assay results: US4636520A, “Antifungal composition employing pyrrolnitrin in combination with an imidazole compound” (Fujisawa Pharmaceutical Co., Ltd., priority 1984, dated 1987)
In brackets after ≈: the same amount, converted by molar mass. Like-named read-outs stand apart in the source and are kept apart here. Values belong to the compound of their own block, whether it stands above or below them.

Assays:
Assay type in all cases: cell-based
[1] = system: Candida albicans Yu-1200; assay: Antimicrobial test 1 (agar plate MIC), organism a
Description: (§1) Pyrrolnitrin (PY) alone, clotrimazole (CL) alone, a 2:1 mixture of PY and CL, a 1:1 mixture of PY and CL and 1:2 mixture of PY and CL were tested for antimicrobial activity in various strains of microorganisms.
(§2) a: Candida albicans Yu-1200
(§3) Composition A: PY (10 mg) was dissolved in 1 ml of ethanol, and the solution is mixed with 9 ml of sterilized water to give a milk-white suspension.
(§4) Composition B: CL (10 mg) was dissolved in 1 ml of N,N-dimethylformamide, and the solution was mixed with 9 ml of sterilized water to give a milk-white suspension.
(§5) Composition C: The above Compositions A and B were mixed together in a volume ratio of 2:1 to give a suspension. […]
(§6) Plates with varied active ingredient concentrations were prepared by admixing each of Compositions A-E prepared in the above manner with Sabouraud agar medium (for test organisms a-f) or Mueller-Hinton medium (for test organism g), followed by appropriate dilution with the medium. These plates were inoculated respectively with each of the test organisms a-g and incubated under the conditions given below, and the minimum inhibitory concentration (MIC; μg/ml) at which the growth of each test organism is inhibited was determined. […]
(§7) The FIC indexes given in the parentheses of Tables 1 and 2 were calculated by using the following formulas. […]

[2] = system: Staphylococcus epidermidis 91; assay: Antimicrobial test 1 (agar plate MIC), organism g
Description: as §1
g: Staphylococcus epidermidis 91
as §3, §4, §5, §6, §7

[3] = system: Candida albicans FP581; assay: Antimicrobial test 1 (agar plate MIC), organism e
Description: as §1
e: Candida albicans FP581
as §3, §4, §5, §6, §7

[4] = system: Aspergillus oryzae IFO 5239; assay: Antimicrobial test 1 (agar plate MIC), organism f; details: IFO5239, 168 h
Description: as §1
f: Aspergillus oryzae IFO 5239
as §3, §4, §5, §6, §7

[5] = system: Candida albicans FP579; assay: Antimicrobial test 1 (agar plate MIC), organism c
Description: as §1
c: Candida albicans FP579
as §3, §4, §5, §6, §7

[6] = system: Candida albicans FP578; assay: Antimicrobial test 1 (agar plate MIC), organism b
Description: as §1
b: Candida albicans FP578
as §3, §4, §5, §6, §7

[7] = system: Candida albicans Yu-1200; assay: Antimicrobial test 2 (agar plate MIC), organism a
Description: (§8) Pyrrolnitrin (PY) alone, clotrimazole (CL) alone, miconazole alone, econazole alone, oxyconazole alone and 1:1 mixtures of PY and CL, PY and miconazole, PY and econazole and PY and oxyconazole were test for antimicrobial activity in various strains of microorganisms.
as §2
(§9) Compositions A was prepared as stated above.
(§10) Composition F, G and H: A milk-white suspension containing 10 mg of miconazole (Composition F), a transparent solution containing 10 mg of econazole (Composition G) and a milk-white suspension containing 10 mg of oxyconazole (Composition H) were respectively prepared in a similar way to that of Composition B.
(§11) Composition I: The above-mentioned Compositions A and F were mixed together in a volume ratio of 1:1 to give a suspension.
(§12) Composition J: The above-mentioned Compositions A and G were mixed together in a volume ratio of 1:1 to give a suspension.
(§13) Composition K: The above-mentioned Compositions A and H were mixed together in a volume ratio of 1:1 to give a suspension.
(§14) Plates with varied active ingredient concentrations were prepared by admixing each of Compositions A and F to K prepared in the above manner with Sabouraud agar medium, followed by appropriate dilution with the medium. These plates were inoculated respectively with each of the test organisms a and d and incubated at 30° C. for 48 hours. The minimum inhibitory concentration (MIC; μg/ml) at which the growth of each test organism is inhibited was determined.
(§15) The FIC indexes given in the parentheses of Tables 1 and 2 were calculated by using the following formulas. [formula]

[8] = system: Candida albicans FP580; assay: Antimicrobial test 1 (agar plate MIC), organism d
Description: as §1
(§16) d: Candida albicans FP580
as §3, §4, §5, §6, §7

[9] = system: Candida albicans FP580; assay: Antimicrobial test 2 (agar plate MIC), organism d
Description: as §8, §16, §9, §10, §11, §12, §13, §14, §15

MIC ([1]; YU1200, Candida albicans Yu-1200, Sabouraud agar, 37° C., 24 hours, read-out: MIC): 100 µg/mL (≈ 389 µM)
MIC ([2]; Staphylococcus epidermidis 91, Mueller-Hinton medium, 37° C., 20 hours, read-out: MIC): 100 µg/mL (≈ 389 µM)
MIC ([3]; Candida albicans FP581, Sabouraud agar, 37° C., 24 hours, read-out: MIC): > 100 µg/mL
MIC ([4]; Aspergillus oryzae IFO 5239, Sabouraud agar, 30° C., 1 week, read-out: MIC): > 100 µg/mL
MIC ([5]; Candida albicans FP579, Sabouraud agar, 37° C., 24 hours, read-out: MIC): 25 µg/mL (≈ 97.2 µM)
MIC ([6]; Candida albicans FP578, Sabouraud agar, 37° C., 24 hours, read-out: MIC): 3.13 µg/mL (≈ 12.2 µM)
MIC ([7]; YU1200, Candida albicans Yu-1200, Sabouraud agar, 30° C., 48 hours, read-out: MIC): 100 µg/mL (≈ 389 µM)
MIC ([8]; Candida albicans FP580, Sabouraud agar, 37° C., 24 hours, read-out: MIC): 1.56 µg/mL (≈ 6.07 µM)
MIC ([9]; Candida albicans FP580, Sabouraud agar, 30° C., 48 hours, read-out: MIC): 0.78 µg/mL (≈ 3.03 µM)
SMILES: O=[N+]([O-])c1c(Cl)cccc1-c1c[nH]cc1Cl [Composition A, 3-(2-nitro-3-chlorophenyl)-4-chloropyrrole]

SMILES: Clc1ccc(COC(Cn2ccnc2)c2ccc(Cl)cc2Cl)cc1 (stereo not shown) [Composition G, 1-[2-[(4-chlorophenyl)methoxy]-2-(2,4-dichlorophenyl)ethyl]-1H-imidazole]
MIC ([7]; Candida albicans, YU1200, 48 h): 6.25 µg/mL (≈ 16.4 µM)
MIC ([9]; Candida albicans, FP580, 48 h): 6.25 µg/mL (≈ 16.4 µM)

SMILES: Clc1ccccc1C(c1ccccc1)(c1ccccc1)n1ccnc1 [Composition B, 1-[(2-chlorophenyl)diphenylmethyl]-1H-imidazole]
MIC ([1]; Candida albicans, YU1200, 24 h): 6.25 µg/mL (≈ 18.1 µM)
MIC ([2]; Staphylococcus epidermidis, 91, 20 h): 25 µg/mL (≈ 72.5 µM)
MIC ([3]; Candida albicans, FP581, 24 h): 25 µg/mL (≈ 72.5 µM)
MIC ([4]; Aspergillus oryzae): 12.5 µg/mL (≈ 36.2 µM)
MIC ([5]; Candida albicans, FP579, 24 h): 6.25 µg/mL (≈ 18.1 µM)
MIC ([6]; Candida albicans, FP578, 24 h): 6.25 µg/mL (≈ 18.1 µM)
MIC ([8]; Candida albicans, FP580, 24 h): 6.25 µg/mL (≈ 18.1 µM)

SMILES: Clc1ccc(C(Cn2ccnc2)=NOCc2ccc(Cl)cc2Cl)cc1 [Composition H]
MIC ([7]; Candida albicans Yu-1200, Sabouraud agar, 30° C., 48 hours): 25 µg/mL (≈ 63.3 µM)
MIC ([9]; Candida albicans FP580, Sabouraud agar, 30° C., 48 hours): 25 µg/mL (≈ 63.3 µM)

SMILES: Clc1ccc(COC(Cn2ccnc2)c2ccc(Cl)cc2Cl)c(Cl)c1 (stereo not shown) [Composition F, 1-[2-(2,4-dichlorophenyl)-2-[(2,4-dichlorophenyl)methoxy]ethyl]-1H-imidazole]
MIC ([7]; Candida albicans, YU1200, 48 h): 6.25 µg/mL (≈ 15 µM)
MIC ([9]; Candida albicans, FP580, 48 h): 12.5 µg/mL (≈ 30 µM)
